row,Compound,melting point [°C]
1,NS(=O)(=O)c1ccc(-c2cnn(-c3ccc(F)cc3)c(=O)c2-c2ccc(F)cc2)cc1,213 to 216
2,CN1CCN(c2nc3c(c(N4CCOCC4)n2)SCCC3)CC1,100
3,Cc1nc(O)c(C)c(Cl)n1,224 to 225
4,CCOC(=O)C1=C(COCc2nnnn2CCN2CCN(C(=O)NC)CC2)NC(C)=C(C(=O)OC)C1c1cccc(Cl)c1Cl (centres undefined),95 to 96
5,Cn1c2cc[nH]c(=O)c2c2cccc(F)c21,294 to 296
6,Cc1[nH]cnc1CCNC(=NCCSCc1nc[nH]c1C)NC#N,190 to 191
7,Cc1ccc(-c2ccc(C(=O)Nc3ccc4cc(CN5CCCC5)cnc4c3F)cc2)cc1,210 to 213
8,O=C(O)C1(CS(=O)(=O)c2ccc(Oc3ccccc3)cc2)CCOCC1,162 to 165
9,Cc1cc(N2C(=O)c3ccccc3C2=O)c(C)cc1N,167 to 169
10,c1ccc2c(c1)nc(-c1ccc3c(c1)OCO3)n2Cc1ccncc1,166 to 167
11,Cc1ccc(Oc2ccc(C3=CC=CN4CCS(=O)(=O)N=C34)cc2)cc1,248 to 249
12,C=Cn1cc(C(=O)OCC)c(=O)c2cc(F)c(N3CCC(NC(=O)C(F)(F)F)C3)nc21 (centres undefined),280 to 282
13,CC1(C)CCC(C)(C)c2cc3c(cc21)CCc1c(-c2ccc(C(=O)O)cc2)c[nH]c1-3,268 to 270
14,Cc1cc(N2CC=C(C(=O)OC(C)C)CC2)c2cccc(-c3ccc(Cl)cc3Cl)c2n1,131 to 133
15,CC(C)(C)c1ccc(C(N)=O)c(NC(=O)Nc2cccnc2)c1,188 to 189
16,O=C(NCCCn1ccnc1)c1[nH]c2ccc(Cl)cc2c1S(=O)(=O)c1ccccc1,216 to 218
17,CCOc1ccc(Nc2nc(=O)cc(N)n2-c2ccccc2)cc1,111 to 113
18,[O-][N+](C1C2CC(c3ccccc32)C1Cl)=[N+]([O-])C1C2CC(c3ccccc32)C1Cl (centres undefined),187 to 188
19,CCOC(=O)N[C@@H]1Cc2ccccc2[C@H]1Nc1ccccc1C(=O)OC (relative stereo),108 to 110
20,CCC1c2ccccc2-c2sccc2N1S(=O)(=O)c1ccc(O)cc1 (centres undefined),169 to 171
21,COC1C=C(C)C2(OC(=O)c3ccc([N+](=O)[O-])cc3)CC(C)(C)C1O2 (centres undefined),95 to 95.5
22,CCOC(C)COC1CCNCC1 (centres undefined),68 to 70
23,COC(=O)c1cnc(N)c(N)c1,154 to 155
24,COC1CN=C(N2CCN(c3ccc(O)cc3)CC2)S1 (centres undefined),166
25,CNc1cc(F)ccc1C(C)=O,52 to 53

row,Compound,melting point [°C]
1,Cc1nn(C)c(S(N)(=O)=O)c1C(=O)OC(C)C,120 to 122
2,CC(=O)C1CCC2C3CCC4CC(O)C(Br)CC4(C)C3CCC12C (centres undefined),171 to 175
3,CCOC(=O)[C@H](Cc1ccc(-c2c(OC)cc(COS(C)(=O)=O)cc2OC)cc1)NC(=O)c1c(Cl)cccc1Cl,109
4,Nc1c2c(nc3cccc(F)c13)C1CCC2C1 (centres undefined),173
5,C=C(c1cn(-c2c(Cl)cc(C(F)(F)F)cc2Cl)nc1C#N)C(F)(F)C(F)(F)F,107 to 108
6,CCc1nc2c(N)nc3cccnc3c2n1CC1(O)CCNCC1,232 to 233
7,Nc1nc(N)c(C=O)c(OCC2CCCCC2)n1,159 to 160
8,CCOC(=O)c1cnc2c(OC(F)F)c(F)ccc2c1O,218 to 219
9,O=c1ncc(Cl)cn1COc1ccccc1,146
10,N#CN1CCC(c2nn(-c3ccccc3F)c3ccccc23)CC1,119 to 121
11,O=C1Nc2cccc(Cl)c2C12COc1cc3c(cc12)OCO3 (centres undefined),175 to 185
12,Cc1cc(-n2ccnc2)c2cccc(OCc3c(Cl)ccc(S(=O)(=O)N4CCC[C@H]4C(=O)N(C)CCN(C)CCCCO)c3Cl)c2n1,84
13,Cc1nc(C)c(Cl)c(NCc2nccc(SCCCN3CCNCC3)c2C)n1,144 to 145
14,CC(C)c1ccc(C(=O)C(c2ccccc2)C2CCCCC2)c(C(C)C)c1OS(N)(=O)=O (centres undefined),127 to 137
15,CCc1c(C)nc2ccc([N+](=O)[O-])cn2c1=O,164 to 165
16,CCCc1nn(C)c2c(=O)n(CCCOc3ccc(SC(C)(C)C(=O)OCC)cc3)c(C)nc12,52 to 54
17,O=C1Nc2ccccc2C12COc1ccc3c(c12)N(Cc1ncccc1C(F)(F)F)ON3 (centres undefined),212 to 215
18,N#Cc1c(O)c2sccc2[nH]c1=O,> 300
19,Cn1cc(S(C)=O)c(=O)c2sc(-c3ccccc3)cc21 (centres undefined),252 to 255
20,CN(C)CCC(Oc1ccc(NS(C)(=O)=O)cc1)c1ccccc1 (centres undefined),145 to 147
21,CCc1nc(/C=C/c2cn(-c3ccccc3)nc2OCc2ccc(OCc3nc(-c4cccc(C#N)c4)oc3C)c(OC)c2)cs1,138 to 140
22,CS(=O)(=O)c1ccc(OCc2ccccc2)c(C=O)c1,129
23,Cn1c(COc2ccc(CC3SC(=O)NC3=O)cc2)nc2ccc(Oc3ccc4cccc(NC(=O)NS(=O)(=O)c5ccccc5)c4c3)cc21 (centres undefined),199 to 205
24,C=CCn1cc(C(=O)O)c(=O)c2cc(F)c(N3CCOCC3)cc21,210

# Source: a melting point compilation (Tetko et al.; mined from patent text by program, amines drawn as free bases though some values may be those of a salt)
